Measurements as given in patent publication US20140315972A1, “RS)-2-(2-oxo-4-phenylpyrrolidin-1-yl)acetamide compound having modulatory activity with a commensurate effect, pharmaceutical substance (variants) and its application, composition (variants) thereof” (priority 2011, published 2014).
“And” between values parts separate entries of the source, which are not always exact repeats. Identical values can stand only once. Marks after values point to notes of the source that are not given here.

Experiments:
mice [1] = test: Toxic effect of ethanol (lateral position, lethal dose); type: in vivo; conditions: 25.0-200 mg/kg
From the text: The antitoxic, sobering and anticraving, activity, as well as the effect of Phenotropil in abstinence was studied on white outbred male rats (weighing 180-220 g) and male mice (weighing 18-24 g) in chronic alcoholism. […] Alcoholized rats after four months of alcoholism and treatment with Phenotropilom voluntarily give up intake of alcohol (anticraving activity) with free choice of water and alcohol (Table 11).

rats = test: Hypobaric hypoxia in 7-day-old rats; type: in vivo
IL-1 = test: Cytokine profile in supernatants of peripheral mononuclear cultures (ELISA), asthenoneurotic patients; type: in vivo, human; conditions: for IL-1: asthenoneurotic disorders, humans
Experimental: (§1) The study of immunocompetent activity of Phenotropil included patients with neurasthenia and organic asthenic disorder (20-47 years) of both sexes (men 37%, women 63%). Control group included practically healthy people (20 people). The study groups were similar in age and sex ratio. Phenotropil was administered at a dose of 100 mg/day, one time in the morning for 30 days. Study of the immune and mental status (level of IL-1, IL-2, IL-3, IL-6, α-TNF, α-INF in supernatants of cultures of peripheral mononuclears from whole blood) was carried out before treatment and at days 7, 14, 21 after the therapy course (30 days) and after 3 months of therapy. Blood sampling for analysis was carried out at the same time of day in the control group and in the group of patients. Peripheral mononuclear cells were isolated from the whole blood; interleukin level was determined by ELISA kits (“Immunotech”, France).

IL-2 = test: as above; type: in vivo, human; conditions: for IL-2 (×10): asthenoneurotic disorders, humans
Experimental: as §1

IL-3 = test: as above; type: in vivo, human; conditions: for IL-3 (×10): asthenoneurotic disorders, humans
Experimental: as §1

IL-6 = test: as above; type: in vivo, human; conditions: for IL-6: asthenoneurotic disorders, humans
Experimental: as §1

α-TNF = test: as above; type: in vivo, human; conditions: for α-TNF (×100): asthenoneurotic disorders, humans
Experimental: as §1

α-INF = test: as above; type: in vivo, human; conditions: for α-INF: asthenoneurotic disorders, humans
Experimental: as §1

mice [2] = test: Haloperidol-induced catalepsy; type: in vivo; conditions: for decrease of catalepsy severity vs control: 300 mg/kg; for Catalepsy: mice
Experimental: Duration of catalepsy was measured in seconds, after 60, 120 and 180 minutes after the drug administration. Phenotropil was administered intraperitoneally at doses of 50, 100 and 300 mg/kg 15 minutes after haloperidol 0.5 mg/kg. Haloperidol induced catalepsy growing over time. […] At a dose of 50 mg/kg, duration of the catalepsy after 180 min was only 4.8 seconds as compared to controls (63.4 seconds). […] Phenotropil markedly counteracts haloperidol-induced catalepsy, indicating its antiparkinsonian activity.

influenza = test: Respiratory viral infection (influenza) of mice during life duration study; type: in vivo; conditions: influenza outbreak
patients = test: Seborrhea of scalp and face skin, topical solution; type: in vivo, human; conditions: for Efficacy expressed in points on a 4-point scale (seborrhea): humans
Experimental: A study of effect of Phenotropil on the scalp and face skin in seborrhea oleosa and on the scalp skin in dry seborrhea, as well in the mixed form, was performed on mixed groups of both sexes (15-37 years). The 0.1% Phenotropil solution was used. In the group with mixed form, additional Phenotropil tablets were administered at a dose of 100 mg per day (in the morning). The baseline examinations were used as control. The prepared samples were rubbed into the scalp once a day 1 or 2 hours before bedtime. In the case of acneiform rash, the skin was wiped in the morning and evening by cotton pads soaked (as usual lotion) by 0.1% aqueous Phenotropil. Washing the hair using shampoo was not recommended. A neutral baby soap “Alice” by OAO Svoboda and the rinse prepared with 25 ml of lemon juice and 100 mg Phenotropil powder per 1000.0 ml water were used. Studies were conducted for 28 calendar days with monitoring examinations every 14 days. In the dry seborrhea group, three patients withdrew from the study after two weeks due to reluctance to undergo further examination; they found it difficult to comply with the regime of the detergents use. The skin state was assessed by a 4-point system, where 0—absent, 1—the effect intensity less than 50.0%, 2—the effect intensity more than 50.0%, 3—the effect intensity more than 80% but less than 100.0% of the cases.

mice [3] = test: Apomorphine verticalization (positive symptoms of schizophrenia); type: in vivo; conditions: for Intensity of verticalization in points: mice, apomorphine 2 mg/kg s.c.
Experimental: Studies have been conducted on white outbred male mice (18-24 g), in comparison with the olanzapine (Zyprexa) with intraperitoneal injection.
In the model of positive symptoms of schizophrenia associated with hyperactivation of the dopamine systems, which allows to identify the ability of substances to block the dopaminergic transmission in the mesolimbic system of the brain, Phenotropil (100, 200, and 300 mg/kg) reduced the apomorphine-induced (2 mg/kg subcutaneously) verticalization intensity scores (Table 4) by 45%, by 2.0 and 2.6 times, respectively.

[4] = After treatment (one month course)
[5] = patients, 100 mg/day 30 days, after course
[6] = patients, three months after the therapy

Structure (SMILES): NC(=O)CN1CC(c2ccccc2)CC1=O (racemic) [Compound 1, (RS)-2-(2-oxo-4-phenylpyrrolidine-1-yl)acetamide]
- toxic effect of ethanol (lateral position indicator and lethal dose) (mice [1]): reduced tenfold
- altitude at which tremor was displayed (rats; 300 mg/kg): 11 thousand meters
- altitude at which tremor was observed (rats; 50 and 100 mg/kg (control 7,000 m)): 10,000 m
- Duration of life of animals (rats; ascension to 11000 m, 50 mg/kg): 6.9 ± 0.7 min
- Duration of life of animals (rats; ascension to 11000 m, 100 mg/kg): 6.9 ± 0.7 min
- Duration of life of animals (rats; ascension to 12000 m, 300 mg/kg): 7.3 ± 0.7 min
- tremor during stay at 11,000 meters for 2 hours (rats; control 11 episodes): tremor was observed only once
- IL-1 (IL-1; [4]): 1.65 ± 0.03
- IL-1 (IL-1; At 3 months after treatment): 1.63 ± 0.04
- IL-1 level vs baseline values (IL-1; [5]): −3.5%
- IL-1 level vs baseline (IL-1; [6]): −4.6%
- IL-2 (×10) (IL-2; [4]): 2.09 ± 0.04
- IL-2 (×10) (IL-2; At 3 months after treatment): 2.21 ± 0.04
- IL-2 level vs baseline values (IL-2; [5]): +8.9%
- IL-2 level vs baseline (IL-2; [6]): +15.1%
- IL-3 (×10) (IL-3; [4]): 2.13 ± 0.05
- IL-3 (×10) (IL-3; At 3 months after treatment): 2.23 ± 0.06
- IL-3 level vs baseline values (IL-3; [5]): +12.7%
- IL-3 level vs baseline (IL-3; [6]): +18.0%
- IL-6 (IL-6; [4]): 3.55 ± 0.15
- IL-6 (IL-6; At 3 months after treatment): 3.80 ± 0.03
- IL-6 level vs baseline values (IL-6; [5]): +11.3%
- IL-6 level vs baseline (IL-6; [6]): +19.0%
- α-TNF (×100) (α-TNF; [4]): 8.56 ± 0.60
- α-TNF (×100) (α-TNF; At 3 months after treatment): 7.92 ± 0.54
- α-TNF level vs baseline values (α-TNF; [5]): −11.6%
- α-TNF level vs baseline (α-TNF; [6]): −18.2%
- α-INF (α-INF; [4]): 4.18 ± 0.06
- α-INF (α-INF; At 3 months after treatment): 4.11 ± 0.05
- α-INF level vs baseline values (α-INF; [5]): −10.3%
- α-INF level vs baseline (α-INF; [6]): −11.8%
- decrease of catalepsy severity vs control (mice [2]; 180 minutes): decreased threefold
- decrease of catalepsy severity vs control (mice [2]; after the 60 min point): 2.6 times
- Catalepsy (mice [2]; haloperidol 0.5 mg/kg + 50 mg/kg i.p., 120 min): 8.5 ± 3.5 s
- Catalepsy (mice [2]; haloperidol 0.5 mg/kg + 50 mg/kg i.p., 180 min, listed as Phenotropil): 4.8 s and 4.8 ± 2.1 s
- Catalepsy (mice [2]; haloperidol 0.5 mg/kg + 100 mg/kg i.p., 120 min): 2.0 ± 1.0 s
- Catalepsy (mice [2]; haloperidol 0.5 mg/kg + 100 mg/kg i.p., 180 min): 0.0 ± 0.0 s
- Catalepsy (mice [2]; haloperidol 0.5 mg/kg + 300 mg/kg i.p., 60 min): 6.6 ± 1.9 s
- Catalepsy (mice [2]; haloperidol 0.5 mg/kg + 300 mg/kg i.p., 120 min): 10.6 ± 4.5 s
- Catalepsy (mice [2]; haloperidol 0.5 mg/kg + 300 mg/kg i.p., 180 min): 21.4 ± 8.4 s
- surviving mice that did not get sick (influenza): 46%
- surviving mice that had been ill but survived (influenza): 54%
- mice died, total in treated groups (influenza; all control animals died): 15%
- therapeutic effect compared to control with simultaneous tablets (patients; 0.1% solution + tablets 100 mg per day): 300.0%
- therapeutic effect in seborrhoea compared with control (patients; 0.1% solution, 28 days): 200.0%
- Efficacy expressed in points on a 4-point scale (seborrhea) (patients; DF (dry form), topically 0.1% aqueous solution): 2* (the effect intensity more than 50.0%)
- Efficacy expressed in points on a 4-point scale (seborrhea) (patients; MF (mixed form), oral 100 mg): 1* (the effect intensity less than 50.0%)
- Efficacy expressed in points on a 4-point scale (seborrhea) (patients; MF (mixed form), topically 0.1% aqueous solution + 100 mg orally): 3* (the effect intensity more than 80% but less than 100.0% of the cases)
- Efficacy expressed in points on a 4-point scale (seborrhea) (patients; OF (oily form), topically 0.1% aqueous solution): 2* (the effect intensity more than 50.0%)
- reduction of verticalization intensity (mice [3]; 1 mg/kg): 26%
- reduction of verticalization intensity (mice [3]; 10 mg/kg): 66.5%
- reduction of verticalization intensity (mice [3]; 100 mg/kg): 45%
- reduction of verticalization intensity (mice [3]; 200 mg/kg): 2.0 times
- reduction of verticalization intensity (mice [3]; 300 mg/kg): 2.6 times
- Intensity of verticalization in points (mice [3]; 100 mg/kg i.p.): 27 ± 8.7 points
- Intensity of verticalization in points (mice [3]; 200 mg/kg i.p.): 25 ± 5.1 points
- Intensity of verticalization in points (mice [3]; 300 mg/kg i.p.): 19 ± 5.1 points
